Test results published in the supplement of paper PMC11061612.

How the values were obtained:
Assay in all cases: Bliss excess, mean over the matrix (fraction); higher = more synergy
CS1 (Chondrosarcoma) = system: CS1 (Chondrosarcoma)
Procedure, shortened: (§1)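 Bliss excess equals the observed combination effect minus the expected value EA + EB − EA·EB, where EA and EB are the effects of each agent alone. Combination Emax is the second-highest inhibition within the matrix. Inhibition was scaled from CellTiter-Glo 2.0 luminescence, with 0 set by vehicle wells and 1 by blank wells, after 72 hours of two-drug dosing of cells plated in 1536-well plates.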

[1] = system: PA-TU-8902 (Pancreatic Carcinoma)
Procedure, shortened: as §1

SK-MEL-1 (Melanoma) = system: SK-MEL-1 (Melanoma)
Procedure, shortened: as §1

[2] = system: SNG-M (Endometrial Carcinoma)
Procedure, shortened: as §1

[3] = system: EKVX (Non-Small Cell Lung Carcinoma)
Procedure, shortened: as §1

HuO9 (Osteosarcoma) = system: HuO9 (Osteosarcoma)
Procedure, shortened: as §1

[4] = system: MES-SA (Other Solid Carcinomas)
Procedure, shortened: as §1

[5] = system: NOMO-1 (Acute Myeloid Leukemia)
Procedure, shortened: as §1

[6] = system: KG-1 (Acute Myeloid Leukemia)
Procedure, shortened: as §1

[7] = system: ETK-1 (Biliary Tract Carcinoma)
Procedure, shortened: as §1

[8] = system: NCI-H1688 (Small Cell Lung Carcinoma)
Procedure, shortened: as §1

[9] = system: MEG-01 (Chronic Myelogenous Leukemia)
Procedure, shortened: as §1

[10] = system: D-283MED (Other Solid Carcinomas)
Procedure, shortened: as §1

MCF7 (Breast Carcinoma) = system: MCF7 (Breast Carcinoma)
Procedure, shortened: as §1

MSTO-211H (Mesothelioma) = system: MSTO-211H (Mesothelioma)
Procedure, shortened: as §1

[11] = system: EFM-192A (Breast Carcinoma)
Procedure, shortened: as §1

HCC38 (Breast Carcinoma) = system: HCC38 (Breast Carcinoma)
Procedure, shortened: as §1

[12] = system: SK-LMS-1 (Other Solid Carcinomas)
Procedure, shortened: as §1

[13] = system: JHH-6 (Hepatocellular Carcinoma)
Procedure, shortened: as §1

[14] = system: HOP-92 (Non-Small Cell Lung Carcinoma)
Procedure, shortened: as §1

Row | SMILES | Bliss excess (CS1 (Chondrosarcoma)) | Bliss excess [1] | Bliss excess (SK-MEL-1 (Melanoma)) | Bliss excess [2] | Bliss excess [3] | Bliss excess (HuO9 (Osteosarcoma)) | Bliss excess [4] | Bliss excess [5] | Bliss excess [6] | Bliss excess [7] | Bliss excess [8] | Bliss excess [9] | Bliss excess [10] | Bliss excess (MCF7 (Breast Carcinoma)) | Bliss excess (MSTO-211H (Mesothelioma)) | Bliss excess [11] | Bliss excess (HCC38 (Breast Carcinoma)) | Bliss excess [12] | Bliss excess [13] | Bliss excess [14]
1 | CC1(C)CCC(CN2CCN(c3ccc(C(=O)NS(=O)(=O)c4ccc(NCC5CCOCC5)c([N+](=O)[O-])c4)c(Oc4cnc5[nH]ccc5c4)c3)CC2)=C(c2ccc(Cl)cc2)C1 [Venetoclax] + COc1cc(Nc2ncc3c(n2)-c2ccc(Cl)cc2C(c2c(F)cccc2OC)=NC3)ccc1C(=O)O [Alisertib] (first compound max 1 µM, 7x7, partner max 10 µM) | -0.0227 | -0.0664 | 0.0439 | -0.0189 | -0.0457 | 0.135 | -0.0225 | 0.0906 | 0.273 | -0.0385 | 0.0566 | 0.0985 | 0.0345 | 0.0079 | 0.0116 | -0.0548 | -0.0184 | 0.0215 | -0.0311 | 0.082
2 | CN(CCO)CC[C@H](CSc1ccccc1)Nc1ccc(S(=O)(=O)NC(=O)c2ccc(N3CCC([C@@H](O)c4ccccc4-c4ccc(Cl)cc4)CC3)cc2)cc1S(=O)(=O)C(F)(F)F [AZD4320] + C[C@@H](Nc1cc(F)cc(F)c1)c1cc(C(=O)N(C)C)cc2c(=O)cc(N3CCOCC3)oc12 [AZD8186] (first compound max 1 µM, 7x7, partner max 3 µM) | -0.0411 | -0.0139 | -0.0523 | 0.0018 | -0.0127 | 0.0515 | 0.0139 | 0.0515 | 0.066 | -0.046 | 0.0259 | 0.0022 | 0.0429 | 0.0057 | 0.0841 | 0.0057 | -0.0028 | 0.0304 | -0.0164 | 0.0329
